“And” between values parts separate entries of the source, which are not always exact repeats. Identical values can stand only once. Inconclusive results are not listed. The source made the active and inactive calls.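 How the source made its calls: active means valid dose-response fit whose half-maximal growth-inhibiting concentration is at or below a set limit above the top tested dose; inconclusive means flat fit with effect between 30 and 70%, or poor fit; inactive means half-maximal concentration above a set limit.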 Where only a bound is given, the exact number is not on record here.

65 compounds from PubChem BioAssay AID1259246 (Broad Institute, 2017) can be followed below.

In this assay the test system is Clostridioides difficile clinical isolate growth, OD600, 24 h. Nature of the assay: antibacterial activity against Clostridioides difficile – 10-point retest, dose response (AID 1259246).
One may read the IC50 as the midpoint of a concentration-inhibition curve. Turning to `CO[C@H]1CN(C)C(=O)c2cc(NC(=O)Nc3cc(Cl)cc(Cl)c3)ccc2OC[C@H](C)NC[C@H]1C`, the IC50 was 41.2 µM and 8.16 µM.
With `C[C@H](CO)N1C[C@H](C)[C@@H](CN(C)Cc2ccc(Oc3ccccc3)cc2)Oc2ccc(NC(=O)CCCN(C)C)cc2CC1=O`, the IC50 is 64.1 µM.
The value for `CO[C@@H]1CN(C)C(=O)c2cc(NC(=O)Nc3ccc(Cl)c(Cl)c3)ccc2OC[C@@H](C)NC[C@@H]1C` was 13.7 µM and 26.6 µM; that for `CO[C@H]1CN(C)C(=O)c2ccc(NC(=O)Nc3ccc(Cl)c(Cl)c3)cc2OC[C@H](C)NC[C@@H]1C` was 37.6 µM; that for `CO[C@@H]1CN(C)C(=O)c2ccc(NC(=O)c3ccc(-c4ccccc4)cc3)cc2OC[C@@H](C)NC[C@@H]1C` was 62.8 µM.
For `C[C@@H]1CN([C@@H](C)CO)S(=O)(=O)c2ccc(/C=C/c3ccccc3)cc2O[C@@H]1CN(C)Cc1ccc(C(=O)O)cc1`, the IC50 was > 240 µM (inactive).
Turning to `CO[C@@H](CN(C)C(=O)C1CCOCC1)[C@@H](C)CN(C(=O)Nc1ccc(C(F)(F)F)cc1)[C@H](C)CO`, the IC50 is 4.1 µM.
Then `C[C@@H]1CN([C@H](C)CO)S(=O)(=O)c2ccc(/C=C/c3ccccc3)cc2O[C@H]1CN(C)Cc1ccc(C(=O)O)cc1`, with 6.11 µM.
On to `CO[C@H]1CN(C)C(=O)c2ccc(NC(=O)Nc3ccc(Cl)c(Cl)c3)cc2OC[C@H](C)NC[C@H]1C`, for which the IC50 was 14.9 µM and 8.28 µM.
Then `C[C@@H]1CN([C@@H](C)CO)C(=O)c2cccc(NC(=O)Nc3ccccc3)c2O[C@@H]1CN(C)Cc1ccc(C(F)(F)F)cc1`, with 54.2 µM and 28 µM; and `C[C@@H]1CN([C@@H](C)CO)C(=O)c2cccc(NC(=O)Nc3ccccc3)c2O[C@@H]1CN(C)Cc1ccc(-c2ccccc2)cc1`, with 3.3 µM and 1.93 µM and 5.49 µM.
On to `COc1ccc(S(=O)(=O)N(C)C[C@H]2Oc3ccc(NC(=O)Nc4ccc(C(F)(F)F)cc4)cc3C(=O)N([C@@H](C)CO)C[C@@H]2C)cc1`, for which the IC50 was 51.2 µM.
The value for `C[C@@H]1CN([C@@H](C)CO)C(=O)c2cccc(NC(=O)Nc3ccccc3)c2O[C@@H]1CN(C)Cc1ccc(Oc2ccccc2)cc1` was 1.2 µM and 0.402 µM and < 0.235 µM; that for `C[C@H](CO)N1C[C@H](C)[C@H](CN(C)C(=O)Nc2ccccc2)Oc2c(NC(=O)Nc3ccc(C(F)(F)F)cc3)cccc2C1=O` was 19.8 µM.
Then `CO[C@H](CN(C)C(=O)C1CCOCC1)[C@H](C)CN(C(=O)Nc1ccc(C(F)(F)F)cc1)[C@@H](C)CO`, with 21.4 µM.
The value for `C[C@H](O)C#Cc1ccc2c(c1)O[C@H](CN(C)C(=O)CN(C)C)[C@H](C)CN([C@H](C)CO)S2(=O)=O` was > 240 µM (inactive).
`C[C@H]1CN([C@@H](C)CO)C(=O)c2cccc(NC(=O)Nc3ccc(C(F)(F)F)cc3)c2O[C@H]1CN(C)Cc1ccc(-c2ccccc2)cc1`: the IC50 was 116 µM.
The value for `Cc1ccc(-c2ccc3c(c2)O[C@@H](CN(C)Cc2ccc(C(=O)O)cc2)[C@H](C)CN([C@H](C)CO)S3(=O)=O)cc1` was 97 µM.
Then `Cc1ccc(F)cc1S(=O)(=O)N[C@@H]1CCN(Cc2ccc(CC(C)C)cc2)C1`, with 14.3 µM; and `CO[C@H]1CN(C)C(=O)c2ccc(NC(=O)c3nc4ccccc4s3)cc2OC[C@@H](C)N(Cc2ccncc2)C[C@@H]1C`, with > 240 µM (inactive); and `O=C(NCC[C@@H]1CC[C@H](NC(=O)Nc2cc(F)ccc2F)[C@H](CO)O1)Nc1ccc(Cl)cc1`, with > 240 µM (inactive).
Take `CNC[C@@H]1Oc2ccc(NC(=O)Nc3ccccc3)cc2CC(=O)N([C@@H](C)CO)C[C@H]1C`: the IC50 is > 270 µM (inactive).
Consider `CO[C@@H]1CN(C)C(=O)c2cc(NC(=O)Nc3cc(Cl)cc(Cl)c3)ccc2OC[C@H](C)NC[C@@H]1C`, for which the IC50 is 37.8 µM and 35.6 µM.
Then `COc1ccc(CN(C)C[C@H]2OCCCC[C@H](C)Oc3ccc(NC(=O)Nc4ccc(C(F)(F)F)cc4)cc3C(=O)N([C@@H](C)CO)C[C@@H]2C)cc1`, with 67.7 µM; and `CO[C@H](CN(C)C(=O)C1CCOCC1)[C@H](C)CN(C(=O)Nc1ccc(C(F)(F)F)cc1)[C@H](C)CO`, with 26.2 µM; and `Cc1ccc(S(=O)(=O)N[C@H]2CC[C@@H](CCNC(=O)Nc3ccc(Cl)cc3)O[C@H]2CO)cc1`, with > 270 µM (inactive).
The value for `C[C@@H]1CN([C@@H](C)CO)C(=O)c2cccc(NS(=O)(=O)c3ccccc3)c2O[C@@H]1CN(C)Cc1ccc(-c2ccccc2)cc1` was 62.5 µM; that for `CO[C@H]1CN(C)C(=O)c2cc(NC(=O)Nc3ccc(Cl)c(Cl)c3)ccc2OC[C@@H](C)NC[C@@H]1C` was 14.5 µM and 17.6 µM; that for `CO[C@@H]1CN(C)C(=O)c2cc(NC(=O)Nc3ccc(Cl)c(Cl)c3)ccc2OC[C@H](C)NC[C@@H]1C` was 17.8 µM and 12.5 µM.
The value for `Cc1ccc(S(=O)(=O)Nc2ccc3c(c2)C(=O)N([C@@H](C)CO)C[C@H](C)[C@@H](CN(C)Cc2ccc4c(c2)OCO4)OCCCC[C@@H](C)O3)cc1` was 17.6 µM; that for `CN(C)CC(=O)N1[C@H](C#N)[C@H](c2ccc(C#CC3CCCCC3)cc2)[C@@H]1CO` was 65.2 µM; that for `COc1ccc(S(=O)(=O)Nc2cccc3c2O[C@H](CN(C)Cc2ccc(-c4ccccc4)cc2)[C@H](C)CN([C@@H](C)CO)C3=O)cc1` was 54.2 µM.
Take `COc1ccc(S(=O)(=O)Nc2ccc3c(c2)C(=O)N([C@@H](C)CO)C[C@H](C)[C@@H](CN(C)Cc2ccc4c(c2)OCO4)OCCCC[C@@H](C)O3)cc1`: the IC50 was 12 µM.
Then `C[C@@H]1CCCCO[C@H](CN(C)Cc2ccc3c(c2)OCO3)[C@@H](C)CN([C@@H](C)CO)C(=O)c2cc(NS(=O)(=O)c3cccs3)ccc2O1`, with 33.5 µM; and `Cc1ccc(-c2ccc3c(c2)O[C@@H](CN(C)Cc2ccc(C(=O)O)cc2)[C@H](C)CN([C@@H](C)CO)S3(=O)=O)cc1`, with 110 µM; and `CNC[C@@H]1Oc2cc(C#CCC3CCCC3)ccc2S(=O)(=O)N([C@H](C)CO)C[C@H]1C`, with 68.6 µM.
As for `CO[C@@H](CN(C)C(=O)C1CCOCC1)[C@@H](C)CN(C(=O)Nc1ccc(C(F)(F)F)cc1)[C@@H](C)CO`, the IC50 was 38.8 µM.
Turning to `C[C@@H]1CN([C@@H](C)CO)C(=O)Cc2cc(NC(=O)CCCN(C)C)ccc2O[C@H]1CN(C)Cc1ccc(Oc2ccccc2)cc1`, the IC50 is 71.1 µM.
The value for `CO[C@H]1CN(C)C(=O)c2ccc(NC(=O)Nc3cc(Cl)cc(Cl)c3)cc2OC[C@H](C)NC[C@H]1C` was 25.6 µM and 69.2 µM; that for `C[C@@H]1CN([C@@H](C)CO)C(=O)c2cc(NC(=O)Nc3ccc(C(F)(F)F)cc3)ccc2O[C@@H](C)CCCCO[C@H]1CN(C)CC1CCCCC1` was 10.9 µM and 2.15 µM; that for `C[C@@H]1CN([C@@H](C)CO)C(=O)c2ccccc2-c2ccccc2CO[C@H]1CN(C)Cc1ccccc1C(F)(F)F` was 19.5 µM.
For the compound `CNC[C@H]1Oc2c(NC(=O)Nc3ccc(C(F)(F)F)cc3)cccc2C(=O)N([C@@H](C)CO)C[C@H]1C`, the IC50 was 36.7 µM.
The value for `CO[C@H](CN(C)C(=O)C1CCOCC1)[C@@H](C)CN(C(=O)Nc1ccc(C(F)(F)F)cc1)[C@H](C)CO` was 14.5 µM.
`Cc1noc(C)c1NC(=O)Nc1cccc2c1O[C@H](CN(C)Cc1ccc(Oc3ccccc3)cc1)[C@H](C)CN([C@@H](C)CO)C2=O`: the IC50 is 57.4 µM and 36.1 µM.
The value for `CO[C@H](CN(C)C(=O)C1CCOCC1)[C@@H](C)CN(C(=O)Nc1ccc(C(F)(F)F)cc1)[C@@H](C)CO` was 2.03 µM.
The value for `CO[C@@H]1CN(C)C(=O)c2cc(NC(=O)Nc3ccc(Cl)c(Cl)c3)ccc2OC[C@H](C)NC[C@H]1C` was 16 µM and 11.3 µM; that for `C[C@H]1CN([C@@H](C)CO)S(=O)(=O)c2ccc(C#CCC3CCCC3)cc2O[C@@H]1CN(C)C` was 72.5 µM; that for `C[C@H]1CN([C@@H](C)CO)C(=O)c2ccccc2-c2ccccc2CO[C@@H]1CN(C)Cc1ccccc1C(F)(F)F` was 13.6 µM.
Then `CO[C@@H](CN(C)C(=O)C1CCOCC1)[C@H](C)CN(C(=O)Nc1ccc(C(F)(F)F)cc1)[C@@H](C)CO`, with 23.4 µM.
Regarding `C[C@@H]1CN([C@@H](C)CO)C(=O)c2cccc(NC(=O)Nc3ccc4c(c3)OCO4)c2O[C@@H]1CN(C)Cc1ccc(Oc2ccccc2)cc1`, the IC50 was less than 0.26 µM.
Regarding `CNC[C@H]1Oc2cc(C#CC3CCCCC3)ccc2S(=O)(=O)N([C@H](C)CO)C[C@@H]1C`, the IC50 was 63.8 µM.
For the compound `C[C@H](CO)N1C[C@H](C)[C@H](CN(C)C(=O)NC2CCCCC2)Oc2ncc(C#Cc3ccc(F)cc3)cc2C1=O`, the IC50 was 37.7 µM.
As for `C[C@H]1CN([C@@H](C)CO)C(=O)Cc2cc(NC(=O)Nc3ccc(C(F)(F)F)cc3)ccc2O[C@H]1CN(C)Cc1ccncc1`, the IC50 is 7.49 µM.
As to `C[C@@H]1CN([C@@H](C)CO)C(=O)c2cccc(NC(=O)Nc3ccc(F)cc3)c2O[C@@H]1CN(C)Cc1ccc(C(F)(F)F)cc1`, the IC50 is 13 µM and 3.27 µM and 6.22 µM.
The value for `C[C@H]1CN([C@@H](C)CO)S(=O)(=O)c2ccc(C#Cc3ccc(F)cc3)cc2O[C@@H]1CN(C)C` was 69.9 µM; that for `COc1ccc(NC(=O)Nc2cccc3c2O[C@H](CN(C)Cc2ccc(C(F)(F)F)cc2)[C@H](C)CN([C@@H](C)CO)C3=O)cc1` was 25.6 µM.
The value for `C[C@H](CO)N1C[C@H](C)[C@@H](CN(C)Cc2ccc(C(=O)O)cc2)Oc2cc(/C=C/c3ccccc3)ccc2S1(=O)=O` was > 120 µM (inactive); that for `CO[C@H]1CN(C)C(=O)c2cc(NC(=O)Nc3cc(Cl)cc(Cl)c3)ccc2OC[C@@H](C)NC[C@@H]1C` was 33.9 µM and 6.17 µM.
The value for `C[C@@H]1CN([C@@H](C)CO)S(=O)(=O)c2ccc(C#CCC3CCCC3)cc2O[C@H]1CN(C)Cc1ccc(C(=O)O)cc1` was 32.4 µM; that for `C[C@@H]1CN([C@@H](C)CO)C(=O)Cc2cc(NC(=O)CCCN(C)C)ccc2O[C@H]1CN(C)Cc1ccc(-c2ccccc2)cc1` was 31.4 µM.
On to `C[C@@H]1CN([C@H](C)CO)C(=O)c2cc(NC(=O)Nc3cccc4ccccc34)ccc2O[C@@H](C)CCCCO[C@H]1CN(C)Cc1ccccc1`, for which the IC50 was 68.4 µM.
Then `CC(C)CC#Cc1ccc2c(c1)O[C@H](CN(C)Cc1ccc(C(=O)O)cc1)[C@@H](C)CN([C@H](C)CO)S2(=O)=O`, with 42.9 µM; and `COc1ccc(NC(=O)Nc2cccc3c2O[C@H](CN(C)Cc2ccc(-c4ccccc4)cc2)[C@H](C)CN([C@@H](C)CO)C3=O)cc1`, with 101 µM.
Then `COc1ccc(C#Cc2cnc3c(c2)C(=O)N([C@@H](C)CO)C[C@@H](C)[C@H](CN(C)CC2CCCC2)O3)cc1`, with 188 µM.
The value for `CO[C@H]1CN(C)C(=O)c2cc(NC(=O)Nc3cc(Cl)cc(Cl)c3)ccc2OC[C@@H](C)NC[C@H]1C` was 31.2 µM and 25.9 µM.
